Source: patent US7498341B2, “Heterocyclically substituted 7-amino-4-quinolone-3-carboxylic acid derivatives, process for their preparation and their use as medicaments” (Sanofi Aventis Deutschland GmbH, priority 2004, dated 2009)

Biological target: T1, human glycogen phosphorylase a (Homo sapiens, UniProt P06737)
T1 sequence (P06737 2-847 limits assumed): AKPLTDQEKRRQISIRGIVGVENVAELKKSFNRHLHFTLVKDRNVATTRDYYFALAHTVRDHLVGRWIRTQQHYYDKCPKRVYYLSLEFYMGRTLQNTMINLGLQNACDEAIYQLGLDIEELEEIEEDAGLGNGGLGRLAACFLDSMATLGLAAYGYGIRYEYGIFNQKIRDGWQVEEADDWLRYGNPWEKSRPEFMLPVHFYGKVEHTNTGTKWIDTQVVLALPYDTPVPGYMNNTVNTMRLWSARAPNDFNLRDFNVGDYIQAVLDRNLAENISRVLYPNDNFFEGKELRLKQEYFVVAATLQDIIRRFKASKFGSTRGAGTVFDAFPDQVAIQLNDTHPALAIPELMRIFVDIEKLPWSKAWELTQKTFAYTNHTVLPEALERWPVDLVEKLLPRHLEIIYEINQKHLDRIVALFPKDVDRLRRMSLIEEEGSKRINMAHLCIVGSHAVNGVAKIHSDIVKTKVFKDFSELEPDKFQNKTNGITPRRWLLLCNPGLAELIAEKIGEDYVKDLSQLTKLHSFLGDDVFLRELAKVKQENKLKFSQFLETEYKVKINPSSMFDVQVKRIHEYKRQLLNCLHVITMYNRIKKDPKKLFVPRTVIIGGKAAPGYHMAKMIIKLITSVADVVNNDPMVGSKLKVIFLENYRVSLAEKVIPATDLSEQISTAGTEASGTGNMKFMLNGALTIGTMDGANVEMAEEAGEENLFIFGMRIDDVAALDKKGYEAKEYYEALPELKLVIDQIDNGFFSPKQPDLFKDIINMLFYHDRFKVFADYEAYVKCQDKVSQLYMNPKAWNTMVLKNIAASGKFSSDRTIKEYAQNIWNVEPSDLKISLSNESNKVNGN
Assay: Glycogen phosphorylase a activity assay (reverse direction, liberation of inorganic phosphate)
Type: biochemical
Details: 10 μM test substance; in vitro inhibition of glycogen phosphorylase a
Protocol: Glycogen phosphorylase a Activity Assay
All the reactions were carried out as duplicate determinations in microtiter plates with 96 wells (Half Area Plates, Costar No 3696), measuring the change in absorption owing to the formation of the reaction product at the wavelength specified hereinafter in a Multiskan Ascent Elisa Reader (Lab Systems, Finland).
In order to measure the GPa enzymic activity in the reverse direction, the general method of Engers et al. (Engers H D, Shechosky S, Madsen N B, Can J Biochem 1970 July; 48(7):746-754) was used to measure the conversion of glucose 1-phosphate into glycogen and inorganic phosphate, with the following modifications: human glycogen phosphorylase a (for example with 0.76 mg of protein/ml (Aventis Pharma Deutschland GmbH), dissolved in buffer solution E (25 mM β-glycerophosphate, pH 7.0, 1 mM EDTA and 1 mM dithiothreitol) was diluted with buffer T (50 mM Hepes, pH 7.0, 100 mM KCl, 2.5 mM EDTA, 2.5 mM MgCl2.6H2O) and addition of 5 mg/ml glycogen to a concentration of 10 μg of protein/ml. […] The baseline glycogen phosphorylase a activity in the absence of test substance was determined by adding 10 μl of buffer solution T (0.1% DMSO). […] After incubation at 45° C. for 60 minutes, the absorption at 820 nm was measured. […]

SMILES: Cc1ccc(C)n1Nc1cc2c(=O)c(C(=O)O)cn(Cc3ccccc3)c2cc1Cl [Example 42, 1-Benzyl-7-chloro-6-(2,5-dimethylpyrrol-1-ylamino)-4-oxo-1,4-dihydroquinolone-3-carboxylic acid]
- % inhibition at 10 μM: 101%

SMILES: CCn1cc(C(=O)OCOC(=O)C(C)(C)C)c(=O)c2cc(Nn3c(C)ccc3C)c(Cl)cc21 [Example 53, 2,2-Dimethylpropionyloxymethyl 7-chloro-6-(2,5-dimethylpyrrol-1-ylamino)-1-ethyl-4-oxo-1,4-dihydroquinolone-3-carboxylate]
- % inhibition at 10 μM: 93%
